Experimental data reported in the NIST ThermoML archive (doi:10.1021/je050020m).

Experiment: xn = mol fraction of the nth substance listed
Conditions: Liquid, Vibrating tube method

CCCCCCCCCC [decane] + O=C=O
Conditions	mass density [kg/m3]
332.94 K, 23010 kPa, x2 = 0.9663	775.39
332.94 K, 23014 kPa, x2 = 0.0551	721.3
332.94 K, 24016 kPa, x2 = 0.9663	784.64
332.94 K, 24025 kPa, x2 = 0.2369	730.17
332.94 K, 24026 kPa, x2 = 0.4536	743.58
332.94 K, 24057 kPa, x2 = 0.0551	722.11
332.94 K, 25006 kPa, x2 = 0.9663	793.1
332.94 K, 25022 kPa, x2 = 0.4536	744.71
332.94 K, 25028 kPa, x2 = 0.2369	731.08
332.94 K, 25048 kPa, x2 = 0.0551	722.92
342.79 K, 13528 kPa, x2 = 0.9663	503.61
342.79 K, 14029 kPa, x2 = 0.9663	528.33
342.79 K, 15026 kPa, x2 = 0.9663	569.49
342.79 K, 16019 kPa, x2 = 0.9663	603.24
342.79 K, 17025 kPa, x2 = 0.9663	631.6
342.79 K, 18035 kPa, x2 = 0.9663	657.54
342.79 K, 19000 kPa, x2 = 0.9663	674.01
342.79 K, 20022 kPa, x2 = 0.9663	691.29
342.79 K, 21024 kPa, x2 = 0.9663	706.16
342.79 K, 22022 kPa, x2 = 0.9663	719.34
342.79 K, 23022 kPa, x2 = 0.9663	731.24
342.79 K, 24017 kPa, x2 = 0.9663	741.98
342.79 K, 25006 kPa, x2 = 0.9663	751.96
342.84 K, 13020 kPa, x2 = 0.8114	721.51
342.84 K, 14001 kPa, x2 = 0.8114	726.31
342.84 K, 15022 kPa, x2 = 0.8114	730.92
342.84 K, 16041 kPa, x2 = 0.8114	735.26
342.84 K, 17013 kPa, x2 = 0.8114	739.14
342.84 K, 18018 kPa, x2 = 0.8114	742.96
342.84 K, 19020 kPa, x2 = 0.8114	746.57
342.84 K, 20008 kPa, x2 = 0.8114	749.98
342.84 K, 21023 kPa, x2 = 0.8114	753.35
342.84 K, 22003 kPa, x2 = 0.8114	756.46
342.84 K, 23041 kPa, x2 = 0.8114	759.67
342.84 K, 24026 kPa, x2 = 0.8114	762.58
342.84 K, 25034 kPa, x2 = 0.8114	765.48
342.86 K, 2043 kPa, x2 = 0.0551	694.82
342.86 K, 3006 kPa, x2 = 0.0551	695.92
342.86 K, 4043 kPa, x2 = 0.0551	696.93
342.86 K, 5044 kPa, x2 = 0.0551	697.98
342.86 K, 6046 kPa, x2 = 0.0551	699.02
342.86 K, 6984 kPa, x2 = 0.0551	699.98
342.86 K, 8003 kPa, x2 = 0.0551	701
342.86 K, 8999 kPa, x2 = 0.0551	702.09
342.86 K, 10007 kPa, x2 = 0.0551	702.98
342.86 K, 11044 kPa, x2 = 0.0551	703.97
342.86 K, 11996 kPa, x2 = 0.0551	704.89
342.86 K, 13021 kPa, x2 = 0.0551	705.84
342.86 K, 13997 kPa, x2 = 0.0551	706.74
342.86 K, 15043 kPa, x2 = 0.0551	707.69
342.86 K, 16022 kPa, x2 = 0.0551	708.54
342.86 K, 17001 kPa, x2 = 0.0551	709.54
342.86 K, 17984 kPa, x2 = 0.0551	710.28
342.86 K, 19042 kPa, x2 = 0.0551	711.19
342.86 K, 20017 kPa, x2 = 0.0551	712.03
342.86 K, 21054 kPa, x2 = 0.0551	713.1
342.86 K, 22022 kPa, x2 = 0.0551	713.72
342.86 K, 23029 kPa, x2 = 0.0551	714.55
342.86 K, 24018 kPa, x2 = 0.0551	715.37
342.86 K, 25025 kPa, x2 = 0.0551	716.21
342.87 K, 5031 kPa, x2 = 0.2369	702.48
342.87 K, 6026 kPa, x2 = 0.2369	703.7
342.87 K, 7027 kPa, x2 = 0.4536	711.28
342.87 K, 7029 kPa, x2 = 0.2369	704.93
342.87 K, 8006 kPa, x2 = 0.2369	706.09
342.87 K, 8024 kPa, x2 = 0.4536	712.92
342.87 K, 9027 kPa, x2 = 0.4536	714.5
342.87 K, 9030 kPa, x2 = 0.2369	707.28
342.87 K, 10014 kPa, x2 = 0.4536	716.02
342.87 K, 10017 kPa, x2 = 0.2369	708.4
342.87 K, 11019 kPa, x2 = 0.2369	709.54
342.87 K, 11025 kPa, x2 = 0.4536	717.56
342.87 K, 12003 kPa, x2 = 0.2369	710.62
342.87 K, 12015 kPa, x2 = 0.4536	719.02
342.87 K, 13006 kPa, x2 = 0.4536	720.46
342.87 K, 13017 kPa, x2 = 0.2369	711.73
342.87 K, 14013 kPa, x2 = 0.2369	712.79
342.87 K, 14013 kPa, x2 = 0.4536	721.87
342.87 K, 15001 kPa, x2 = 0.4536	723.23
342.87 K, 15021 kPa, x2 = 0.2369	713.84
342.87 K, 16004 kPa, x2 = 0.2369	714.86
342.87 K, 16029 kPa, x2 = 0.4536	724.63
342.87 K, 17018 kPa, x2 = 0.2369	715.9
342.87 K, 17019 kPa, x2 = 0.4536	725.94
342.87 K, 18016 kPa, x2 = 0.2369	716.89
342.87 K, 18026 kPa, x2 = 0.4536	727.26
342.87 K, 19005 kPa, x2 = 0.2369	717.86
342.87 K, 19018 kPa, x2 = 0.4536	728.54
342.87 K, 20000 kPa, x2 = 0.2369	718.83
342.87 K, 20000 kPa, x2 = 0.4536	729.75
342.87 K, 21007 kPa, x2 = 0.4536	731.02
342.87 K, 21023 kPa, x2 = 0.2369	719.83
342.87 K, 22008 kPa, x2 = 0.2369	720.78
342.87 K, 22021 kPa, x2 = 0.4536	732.28
342.87 K, 23029 kPa, x2 = 0.2369	721.76
342.87 K, 23032 kPa, x2 = 0.4536	733.5
342.87 K, 23992 kPa, x2 = 0.2369	722.74
342.87 K, 24017 kPa, x2 = 0.4536	734.7
342.87 K, 25008 kPa, x2 = 0.2369	723.65
342.87 K, 25029 kPa, x2 = 0.4536	735.91
352.75 K, 14010 kPa, x2 = 0.9663	449.95
352.75 K, 15010 kPa, x2 = 0.9663	494.4
352.75 K, 16020 kPa, x2 = 0.9663	532.74
352.75 K, 17024 kPa, x2 = 0.9663	566.61
352.75 K, 18026 kPa, x2 = 0.9663	594.54
352.75 K, 19015 kPa, x2 = 0.9663	618.22
352.75 K, 20016 kPa, x2 = 0.9663	638.64
352.75 K, 21018 kPa, x2 = 0.9663	656.61
352.75 K, 22006 kPa, x2 = 0.9663	672.26
352.75 K, 23021 kPa, x2 = 0.9663	686.58
352.75 K, 24018 kPa, x2 = 0.9663	699.34
352.75 K, 25017 kPa, x2 = 0.9663	710.94
352.76 K, 14034 kPa, x2 = 0.8114	701.72
352.76 K, 15050 kPa, x2 = 0.8114	707.51
352.76 K, 15994 kPa, x2 = 0.8114	712.45
352.76 K, 17009 kPa, x2 = 0.8114	717.35
352.76 K, 18024 kPa, x2 = 0.8114	722.02
352.76 K, 19033 kPa, x2 = 0.8114	726.33
352.76 K, 20039 kPa, x2 = 0.8114	730.42
352.76 K, 21009 kPa, x2 = 0.8114	734.16
352.76 K, 22013 kPa, x2 = 0.8114	737.84
352.76 K, 23004 kPa, x2 = 0.8114	741.32
352.76 K, 24035 kPa, x2 = 0.8114	744.84
352.76 K, 25042 kPa, x2 = 0.8114	748.08
352.78 K, 2008 kPa, x2 = 0.0551	686.89
352.78 K, 3010 kPa, x2 = 0.0551	688.04
352.78 K, 4018 kPa, x2 = 0.0551	689.18
352.78 K, 5014 kPa, x2 = 0.0551	690.28
352.78 K, 6015 kPa, x2 = 0.0551	691.42
352.78 K, 7011 kPa, x2 = 0.0551	692.46
352.78 K, 8024 kPa, x2 = 0.0551	693.62
352.78 K, 8988 kPa, x2 = 0.0551	694.56
352.78 K, 10035 kPa, x2 = 0.0551	695.65
352.78 K, 11021 kPa, x2 = 0.0551	696.68
